Measured values from patent US7902401B2, “Fluorinated compounds” (priority 2006, dated 2011).

Legend:
[1] = tested on: Sprague-Dawley rats; test: Maximal Electroshock Assay (Rat); format: in vivo; settings: rat MES, 0.5 h and 4 h pretreatment timepoints
Procedure: Male, Sprague-Dawley rats (approx. 100 g body weight) were prescreened for tonic seizure susceptibility prior to drug testing. […] Protection was defined by the absence of a tonic extensor seizure in the animal within 20 s of application of the electrical stimulus, which typically occurred in all vehicle pretreated animals. Animals received only one electroshock on the drug test day and so separate animals were used for the 0.5 h and 4 h timepoints. All drugs were administered in multiple doses.

[2] = tested on: CD-1 mice; test: Maximal Electroshock Assay (Mouse); format: in vivo; settings: mouse MES, 1 h and 4 h pretreatment timepoints
Procedure: Male, CD-1 mice (20-30 g body weight) were orally pretreated with test compound or vehicle control, and either at 1 h or 4 h post dose a maximal electroshock (45 mA amplitude, 0.2 s duration, 60 Hz) was applied by corneal electrodes. […] Animals received only one electroshock and so separate animals were used for the 1 h and 4 h timepoints. All drugs were administered in multiple doses.

[3] = tested on: SNI rats; test: Spared nerve injury (SNI) model, mechanical allodynia; format: in vivo, rat; settings: 30 mg/kg, i.p.
Procedure: The compounds were tested for their efficacy in reducing mechanical allodynia and cold allodynia in the spared nerve injury (SNI) model of chronic neuropathic pain. In this model, the left sciatic nerve of the rat is exposed under anesthesia. Two of the branches of the sciatic nerve viz. the common peroneal and tibial nerve are ligated and sectioned. The third branch (sural nerve) is left intact. The animals were allowed a post-operative recovery period of 7 days before they were subjected to any test.
The presence of mechanical allodynia was assessed using the Dynamic Plantar Aesthesiometer (Ugo Basile, Italy) which is a modified version of the Von Frey Hair test. In this, a test filament is positioned below the animal's hind paw and the unit is activated which causes the filament to move up and touch the plantar surface of the hind paw. Increasing force is applied to the paw via the filament. […] The cut-off force is set at 50 g. The tests were done on both the non-injured (control) and the injured (SNI) paw.
Testing of compounds was done after 21 days post-operatively. After initial basal readings were taken, the test compound or the vehicle was administered (10 ml/kg) either intraperitoneally (30 mg/kg) or orally (60 mg/kg). The readings were taken again 30, 60 and 180 min after the compound/vehicle administration.

CC(=O)N[C@H](COC(F)F)C(=O)NCc1ccc(F)cc1
melting point: 162.7 °C

CC(=O)NC(COC(F)F)C(=O)NCc1ccc(F)cc1 (centres unmarked) [Compound 4]
duration of action [1]: longer than Lacosamide
duration of action [2]: longer than Lacosamide

CC(=O)N[C@H](COC(F)F)C(=O)NCc1ccc(Cl)cc1 [Compound 20, (2R)-2-(acetylamino)-N-(4-chlorobenzyl)-3-(difluoromethoxy)propanamide]
duration of action [1]: longer than Lacosamide
withdrawal threshold, Post Admin 60 min [3]: 25.3 ± 3.2 g
duration of action [2]: longer than Lacosamide

CC(=O)NC(COC(F)F)C(=O)NCc1ccccc1 (centres unmarked) [Compound 3, 2-(Acetylamino)-N-benzyl-3-(difluoro-methoxy)propanamide]
duration of action [1]: longer than Lacosamide
duration of action [2]: longer than Lacosamide
